We go through one compound from patent publication US9950002B2, “Nanoparticles/theranostic vehicles” (Regents of the University of Minnesota, priority 2013, dated 2018).

The assay has as its system BBMVE cell monolayer challenged with DutchAβ40. Kind of assay: Cytokines inhibition study (IL-6, IL-1β, TNF-α ELISA). The assay is classed as cell-based, bovine. As to conditions: 24 hr; TNV=1.74 mg/ml, DutchAβ40=25 μg/ml, cyclophosphamide=3.05 mg/ml. The method, then:
At the end of 24 hour treatment, the luminal or abluminal solutions of the control and the treated Transwells® was assayed for IL-6, IL-1β and TNF-α using cytokine enzyme linked immunosorbent assay (ELISA) kit (Thermo Scientific, Rockford, Ill.). The cytokine levels secreted by the control BBMVE cell monolayer incubated with hanks balanced salt solution (HBSS) were used as the baseline values.

With `O=P1(N(CCCl)CCCl)NCCCO1` (stereo not shown) [cyclophosphamide], the “secretion of IL-6, IL-1β and TNF-α triggered by DutchAβ40, luminal side” value is “significant decrease”.
